These results are taken from ChEMBL document CHEMBL1145407, “Structure-activity relationships of alpha-ketooxazole inhibitors of fatty acid amide hydrolase” (J Med Chem, 2007).

One may read the Ki as a measure of affinity in units of concentration, obtained from inhibition or displacement.

A short description of assay [1]: Selectivity for rat recombinant FAAH over KIAA1363.
Assay [2] has as its target T1, Fatty-acid amide hydrolase 1 (Homo sapiens, UniProt O00519).
T1 sequence (O00519 whole entry): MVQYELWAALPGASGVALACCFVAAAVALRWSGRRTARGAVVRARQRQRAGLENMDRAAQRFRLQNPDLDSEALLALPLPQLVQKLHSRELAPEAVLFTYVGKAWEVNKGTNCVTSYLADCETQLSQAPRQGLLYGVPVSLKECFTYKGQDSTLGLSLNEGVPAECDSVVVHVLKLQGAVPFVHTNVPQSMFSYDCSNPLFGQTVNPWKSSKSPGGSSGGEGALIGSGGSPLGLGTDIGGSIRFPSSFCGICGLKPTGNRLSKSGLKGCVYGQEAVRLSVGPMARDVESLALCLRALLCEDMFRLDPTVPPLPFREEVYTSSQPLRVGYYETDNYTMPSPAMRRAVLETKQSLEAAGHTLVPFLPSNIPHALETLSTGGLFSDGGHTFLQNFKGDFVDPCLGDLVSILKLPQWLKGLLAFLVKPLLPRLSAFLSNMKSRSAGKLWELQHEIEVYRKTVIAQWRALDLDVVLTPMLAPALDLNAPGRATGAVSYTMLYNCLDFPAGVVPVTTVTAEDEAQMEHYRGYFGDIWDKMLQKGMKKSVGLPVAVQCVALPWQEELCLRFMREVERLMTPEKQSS
In words: Inhibition of human FAAH expressed in COS-7 cells.

Assay [3] is described as follows: Selectivity for rat recombinant FAAH over TGH.
The target in assay [4] is T2, Fatty-acid amide hydrolase 1 (Rattus norvegicus, UniProt P97612).
T2 sequence (P97612 whole entry): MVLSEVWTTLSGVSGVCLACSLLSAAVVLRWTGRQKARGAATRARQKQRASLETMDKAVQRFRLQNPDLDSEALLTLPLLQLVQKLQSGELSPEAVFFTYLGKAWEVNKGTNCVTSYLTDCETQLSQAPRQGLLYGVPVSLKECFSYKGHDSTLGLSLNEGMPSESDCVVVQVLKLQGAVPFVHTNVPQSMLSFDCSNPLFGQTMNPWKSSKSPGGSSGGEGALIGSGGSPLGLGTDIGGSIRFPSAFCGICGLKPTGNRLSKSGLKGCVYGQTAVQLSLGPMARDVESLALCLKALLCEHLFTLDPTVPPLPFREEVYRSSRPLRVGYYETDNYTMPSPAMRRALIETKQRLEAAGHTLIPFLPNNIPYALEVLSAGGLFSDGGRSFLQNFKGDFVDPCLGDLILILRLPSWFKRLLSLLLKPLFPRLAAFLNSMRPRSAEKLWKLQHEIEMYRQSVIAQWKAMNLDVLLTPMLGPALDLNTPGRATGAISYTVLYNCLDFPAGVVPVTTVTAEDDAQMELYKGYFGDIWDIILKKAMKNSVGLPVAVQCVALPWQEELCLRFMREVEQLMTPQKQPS
In words: Inhibition of rat recombinant FAAH expressed in Escherichia coli.

Consider `O=C(CCCCCCc1cccc(Cl)c1Cl)c1ncc(-c2ccccn2)o1`, for which the figures for the Ratio IC50 in assay [1] and in assay [3] were greater than 14000 and 70, respectively. The Ki was 1.2 nM in assay [2] and 0.9 nM in assay [4].
As to `CCCCCCc1cccc(CCCCCCC(=O)c2ncc(-c3ccccn3)o2)c1`, the Selectivity ratio in assay [1] was greater than 1250. Further, the Ratio IC50 in assay [3] is 250. Besides, the inhibitory constant (Ki) in assay [4] worked out at 15 nM.
Take `Cc1ccc(CCCCCCC(=O)c2ncc(-c3ccccn3)o2)cc1`: the Ratio IC50 in assay [1] was greater than 2500; in assay [3], 125. Further, in assay [4], the inhibition constant Ki was 2.8 nM.
As for `Cc1cccc(CCCCCCC(=O)c2ncc(-c3ccccn3)o2)c1`, the Ratio IC50 is greater than 3300 in assay [1] and 170 in assay [3]. Further, the Ki in assay [4] came out at 3.3 nM.
`O=C(CCCCCCc1ccc([N+](=O)[O-])cc1)c1ncc(-c2ccccn2)o1`: the Ratio IC50 was greater than 200000 in assay [1] and 100000 in assay [3]. In addition, the inhibition constant Ki in assay [4] was 6.5 nM.
For the compound `CSc1ccccc1CCCCCCC(=O)c1ncc(-c2ccccn2)o1`, the Ratio IC50 is greater than 3300 in assay [1] and 300 in assay [3]. Besides, the Ki in assay [4] turned out to be 3.3 nM.
For `O=C(CCCCCCc1ccccc1Cl)c1ncc(-c2ccccn2)o1`, in that order: greater than 5000, 30 and 1.9 nM.
The matching figures for `CSc1cccc(CCCCCCC(=O)c2ncc(-c3ccccn3)o2)c1`: greater than 10000, 30 and 4.2 nM.
As to `O=C(CCCCCCc1ccccn1)c1ncc(-c2ccccn2)o1`, the Ratio IC50 in assay [1] is greater than 3300; in assay [3], 33. Further, in assay [4], the inhibitory constant (Ki) is 120 nM.
The matching figures for `CS(=O)(=O)c1ccccc1CCCCCCC(=O)c1ncc(-c2ccccn2)o1`: greater than 1000, 30 and 37 nM.
For `O=C(CCCCCCc1ccsc1)c1ncc(-c2ccccn2)o1`, in that order: greater than 3300, 27 and 5.1 nM.
For `O=C(CCCCCCc1cccs1)c1ncc(-c2ccccn2)o1`, in that order: greater than 5000, 35 and 4.3 nM.
Regarding `COC(=O)c1ccccc1CCCCCCC(=O)c1ncc(-c2ccccn2)o1`, the Ratio IC50 in assay [1] is greater than 250000; in assay [3], 25000. Also, in assay [4], the Ki came to 1 nM.
For `CSc1ccc(CCCCCCC(=O)c2ncc(-c3ccccn3)o2)cc1`, in that order: greater than 5000, 40 and 2.5 nM.
For the compound `Cc1ccccc1CCCCCCC(=O)c1ncc(-c2ccccn2)o1`, the Ratio IC50 in assay [1] is greater than 3300; in assay [3], 100. Moreover, the Ki in assay [4] worked out at 3 nM.
For `O=C(CCCCCCc1ccc(F)cc1)c1ncc(-c2ccccn2)o1`, in that order: greater than 5000, 50 and 3.2 nM.
For the compound `O=C(CCCCCCc1ccc(C(F)(F)F)cc1)c1ncc(-c2ccccn2)o1`, the Ratio IC50 in assay [1] was greater than 10000; in assay [3] it was 20. In addition, the inhibitory constant (Ki) in assay [4] turned out to be 4 nM.
Regarding `O=C(CCCCCCc1ccc(Cl)cc1)c1ncc(-c2ccccn2)o1`, the Ratio IC50 is greater than 3300 in assay [1] and 67 in assay [3]. In addition, the inhibitory constant (Ki) in assay [4] was found to be 2.7 nM.
As to `O=C(CCCCCCc1cccc(C(F)(F)F)c1)c1ncc(-c2ccccn2)o1`, the Ratio IC50 in assay [1] is greater than 5000; in assay [3], 10. Also, the Ki in assay [4] was found to be 1 nM.
The matching figures for `COC(=O)c1ccc(CCCCCCC(=O)c2ncc(-c3ccccn3)o2)cc1`: greater than 400000, 25000 and 1.5 nM.
Regarding `COc1cccc(CCCCCCC(=O)c2ncc(-c3ccccn3)o2)c1`, the values for the Ratio IC50 in assay [1] and in assay [3] were greater than 5000 and 50, respectively. Moreover, in assay [4], the inhibitory constant (Ki) turned out to be 2.5 nM.
In the case of `CCCCCCc1ccc(CCCCCCC(=O)c2ncc(-c3ccccn3)o2)cc1`, the values for the Ratio IC50 in assay [1] and in assay [3] were greater than 3300 and 1000, respectively. In addition, in assay [4], the inhibitory constant (Ki) worked out at 6.7 nM.
The matching figures for `COC(=O)c1cccc(CCCCCCC(=O)c2ncc(-c3ccccn3)o2)c1`: greater than 250000, 25000 and 1.9 nM.
